Data reported in US10350210B2, “EGFR and ALK dual inhibitor” (PRECEDO PHARMACEUTICALS CO., LTD, priority 2015, dated 2019).

Key:
[1] = tested on: non-small cell lung cancer cell H3122 subcutaneous tumors; test: Mouse tumor model of non-small cell lung cancer cell H3122; format: in vivo; details: for tumor inhibition rate: Bal b/c mice
Protocol: Similarly, 72 Bal b/c female mice, 4-6 weeks old, were purchased from Shanghai SLAC Laboratory Animal Co., Ltd., and maintained in an SPF laboratory. Drinking water and bedding were both sterilized by autoclaving. All operations involving the mice were performed under aseptic conditions. At day 0, 5×10^6 non-small cell lung cancer cells H3122 (purchased from ATCC) were injected subcutaneously into the left flank of all mice. At day 15, all mice were divided into eight groups (9 mice per group), and the first group of mice were orally administered with methyl cellulose (HKI) solvent, the second group of mice were orally administered with Compound 1 at a dose of 5 mg/kg mouse weight, the third group of mice were orally administered with Compound 1 at a dose of 10 mg/kg mouse weight, the fourth group of mice were orally administered with Compound 1 at a dose of 20 mg/kg mouse weight, the fifth group of mice were orally administered with methyl cellulose (HKI) solvent, the sixth group of mice were orally administered with Compound 10 at a dose of 10 mg/kg mouse weight, the seventh group of mice were orally administered with Compound 10 at a dose of 20 mg/kg mouse weight, and the eighth group of mice were orally administered with Compound 10 at a dose of 40 mg/kg mouse weight daily. Starting from the administration, the length/width of the subcutaneous tumor was measured daily with a vernier caliper, and the weight of the mice was recorded daily to observe the effect of Compounds 1 and 10 on the body weight of the mice. For the first to fourth groups, the mice were sacrificed at day 36 and the subcutaneous tumors were collected. The tumors were weighed, and then the tumor tissues were used to prepare protein lysates for use. The growth trend of the subcutaneous tumor within 16-36 days was plotted, wherein the tumor volume was calculated as length×width×width/2 mm^3. For the fifth to eighth groups, the mice were sacrificed at day 43 and the subcutaneous tumors were collected. The tumors were weighed, and then the tumor tissues were used to prepare protein lysates for use. The growth trend of the subcutaneous tumor within 16-43 days was plotted, wherein the tumor volume was calculated as length×width×width/2 mm^3.

CHL = test: Cell growth (Cell Titer-Glo viability), CHL; format: cell-based, Chinese hamster; details: Cricetulus griseus; CHL Chinese hamster lung cell, 72 hrs; read-out: GI50
BaF3 = test: Cell growth (Cell Titer-Glo viability), BaF3; format: cell-based; details: BaF3 mouse primary B cell, 72 hrs

| GI50 (BaF3) [µM] | Compound | tumor inhibition rate ([1]; oral daily 20 mg/kg) [%] | tumor inhibition rate ([1]; oral daily 40 mg/kg) [%] | body weight of the mice ([1]; oral daily 20 mg/kg) | body weight of the mice ([1]; oral daily 40 mg/kg) | GI50 (CHL) [µM] | tumor inhibition rate ([1]; oral daily 10 mg/kg, on the second day of administration) [%] | body weight of the mice ([1]; oral daily 10 mg/kg) |
| --- | --- | --- | --- | --- | --- | --- | --- | --- |
| 1.2 | C=CC(=O)Nc1cc(Nc2ncc(Cl)c(Nc3ccccc3S(=O)(=O)C(C)C)n2)c(OC)cc1N1CCCN(C)CC1 [Compound 10, N-(5-(5-chloro-4-(2-(isopropylsulfonyl)phenylamino)pyrimidin-2-ylamino)-4-methoxy-2-(4-methyl-1,4-homopiperazin-1-yl)phenyl)acrylamide] | 68.3 | 78.4 | did not decrease | did not decrease | 3.5 |  |  |
| 1.4 | C=CC(=O)Nc1cc(Nc2ncc(Cl)c(Nc3ccccc3S(=O)(=O)C(C)C)n2)c(OC)cc1N1CCN(CC)CC1 [Compound 1, N-(5-(5-chloro-4-(2-(isopropylsulfonyl)phenylamino)pyrimidin-2-ylamino)-2-(4-ethylpiperazin-1-yl)-4-methoxyphenyl)acrylamide] | 77.7 |  |  |  | 1.8 | 61.5 | did not decrease |
